Experimental data reported in the CheMixHub drug solubility set.

Test: xn = mol fraction of the nth substance listed, in the solute-free solvent

CC(=O)OC(c1ccccc1)C(Cl)(Cl)Cl (centres undefined) + CC(C)O + O
solubility (g/100 g solution)
Details	288.15 K	293.15 K	298.15 K	303.15 K	308.15 K	313.15 K	318.15 K	323.15 K	328.15 K
x2 = 0.3	0.121	0.305	0.695	1.28	1.93	2.84	3.53	4.2	4.91
x2 = 0.4	0.68	1.07	1.66	2.53	3.38	4.59	5.99	7.89	10.2
x2 = 0.5	1.44	1.92	2.68	3.57	4.9	6.25	8.62	11.3	15.3
x2 = 0.6	2.16	2.57	3.54	4.68	6.23	7.88	10.9	14.7	19.1
x2 = 0.7	2.5	3.03	4.15	5.52	7.14	9.44	12.2	16.8	21.4
x2 = 0.8	2.69	3.35	4.57	6.3	7.95	10.4	13.8	18.5	23.5
x2 = 0.9	2.86	3.67	5.1	6.71	8.39	10.9	14.4	19.4	25.3

O=C1CCc2ccc(OCCCCN3CCN(c4cccc(Cl)c4Cl)CC3)cc2N1 + CCC(C)=O + CCOC(C)=O
solubility (g/100 g solution)
Details	278.15 K	283.15 K	288.15 K	293.15 K	298.15 K	303.15 K	308.15 K	313.15 K	318.15 K
x2 = 0.1	0.601	0.745	0.882	1.04	1.24	1.57	1.88	2.26	2.76
x2 = 0.2	0.641	0.794	0.953	1.12	1.37	1.74	2.08	2.45	2.98
x2 = 0.3	0.681	0.845	1.04	1.22	1.48	1.91	2.28	2.68	3.24
x2 = 0.4	0.73	0.907	1.14	1.32	1.61	2.06	2.48	2.92	3.53
x2 = 0.5	0.778	0.975	1.23	1.44	1.75	2.22	2.66	3.16	3.8
x2 = 0.6	0.825	1.05	1.32	1.57	1.89	2.39	2.86	3.4	4.12
x2 = 0.7	0.879	1.13	1.43	1.69	2.03	2.55	3.04	3.65	4.42
x2 = 0.8	0.948	1.22	1.53	1.83	2.18	2.72	3.25	3.87	4.75
x2 = 0.9	1.04	1.34	1.63	1.98	2.36	2.91	3.48	4.12	5.04
